Data published in PMC6162693, “Investigation into the Thermal Response and Pharmacological Activity of Substituted Schiff Bases on α-Amylase and α-Glucosidase” (Antioxidants, 2018).
Values after ≈ are worked out from the molar mass of the structure shown. Read-outs that look alike come from different tables or passages of the source.

Experiments:
[1] = Radical scavenging over DPPH, ABTS and H2O2 assays; settings: lower limit over the three radical assays; read-out: IC50 values for quenching the radicals (lowest over DPPH, ABTS, H2O2)
Description: (§1) The antioxidant activities of Schiff bases (1–9) were determined by DPPH, ABTS^+, H2O2, ferric reducing power assays, and compared with 3,4,5-trihydroxybenzoic acid (10), 5-(1,2-dihydroxyethyl)-3,4-dihydroxyfuran-2(5H)-one (11), and 2-(3,4-dihydroxyphenyl)-3,5,7-trihydroxy-4H-chromen-4-one (12) (as controls).
The scavenging activity of compounds (1–12) was evaluated by adding an ethanolic solution of DPPH (300 μL, 0.05 mM) and incubated for 30 min in the dark. After that, changes in the absorbance of the mixture were measured at 517 nm on a UV-Vis spectrophotometer. […]
A mixture of ABTS (960.2 mg) and potassium persulphate (165.6 mg) was dissolved in 250 mL of distilled water to generate the blue-green ABTS^+ solution. The ABTS solution was stored away in the dark at ambient temperature for 24 h to generate sufficient ABTS radical cation (ABTS^+), then the absorbance was adjusted to 0.9547 with distilled water. […] Changes in concentration of ABTS^+ were measured at 734 nm on a spectrophotometer. […] The IC50 (μM) of the compounds were determined by linear regression analysis, and all analyses were carried out in triplicate. […]
According to the methods of Ruch et al., the H2O2 scavenging activity of compounds (1–12) was evaluated. […] The absorbance of the mixture was measured at 230 nm, thereafter, the %H2O2 scavenging activity (Equation (4)) and IC50 (μM) of the compounds 1–12 was determined. […]

[2] = system: Candida albicans; experiment: Broth microdilution antimicrobial assay, C. albicans; assay type: cell-based
Description: (§2) Exactly 1.5 mg of sodium;10-oxido-7-oxophenoxazin-10-ium-3-olate was dissolved in 100 mL of distilled water, vortexed, filtered, sterilised, and stored at 4 °C for a maximum of 14 days before being applied as a growth indicator. 1000 μM stock solution of Schiff bases (1–9) was prepared in DMSO.
(§3) Fungi (Aspergillus niger, Candida albicans), Gram-positive bacteria (Staphylococcus aureus, Enterococcus faecalis), and Gram-negative bacteria (Salmonella typhi, Escherichia coli).
(§4) Colonies from a 24 h culture agar plate were collected with a loop and transferred to a tube containing lysogeny broth (LB). The various suspensions were incubated at 37 °C and the size adjusted to 1.5 × 10^6 CFU/mL [27].
(§5) The antimicrobial activity of Schiff bases (1–9), was evaluated using 96-well broth microdilution method as described by de Rapper et al. (2013) and Akhalwaya et al. (2018) with slight modifications. Columns 1–11 was filled 50 µL LB, followed by the addition of 50 µL of Schiff base to column 1. Thereafter, 50 µL of Schiff bases from column 1 was transferred by multichannel pipette to columns 2–10, resulting in 50 µL Schiff bases per well. Column 11 contained 100 µL of diluted standardised inoculum, while Column 12 contained 100 µL of LB as a control to monitor sterility. Then, 50 µL of the microorganism suspension was then added to columns 1–10 and the control column 11. The plates were incubated at 37 °C for 24 h, followed by the addition of 30 µL of growth indicator solution and further incubated for 2 h for the observation of colour change. On completion of incubation, the columns with blue indicator colour were reported as the MIC (µM) values. The columns with a concentration higher than the MIC value were plated on nutrient agar to determine the minimum bactericidal and fungicidal concentrations.

[3] = biological target: α-glucosidase; experiment: α-Glucosidase inhibitory activity; assay type: biochemical; settings: Means ×10^2 ± SD from at least three experiments
Description: The inhibitory activity of Schiff bases (1-9) against α-glucosidase was assessed by the method previously described by […] et al. […] Then, approximately 0.2 mL of Schiff base solution was mixed with 1.0 mL of 50 mM sodium phosphate buffer (pH 6.9) and 50 μL of α-glucosidase solution (2 U/mL). Thereafter, incubated at 37 °C for 10 min, followed by the addition of exactly 50 μL of 0.7 mM p-nitrophenyl-α-D-glucopyranoside solution in 50 mM sodium phosphate buffer (pH 6.9) and further incubated for 30 min at 37 °C. The reaction was terminated by the addition of 2.0 mL solution of 0.5 M Na2CO3. 0.3 mL aliquot of the above mixture was mixed with 4.7 mL of distilled water and the absorbance measured at 405 nm. […] (6) α - glucosidase inhibition (%) = (Ae - ASB/Ae)100 where Ae is the absorbance of the enzyme solution after incubation and ASB is the absorbance after incubation of Schiff bases solution. The assay was performed in triplicate.

[4] = system: Enterococcus faecalis; experiment: Broth microdilution antimicrobial assay, E. faecalis; assay type: cell-based; settings: for MBC: Enterococcus faecalis, read-out: MBC E. faecalis
Description: as §2, §3, §4, §5

[5] = system: Escherichia coli; experiment: Broth microdilution antimicrobial assay, E. coli; assay type: cell-based; settings: for MBC: Escherichia coli, read-out: MBC E. coli
Description: as §2, §3, §4, §5

[6] = biological target: α-amylase; experiment: α-Amylase inhibitory activity; assay type: biochemical; settings: Means ×10^2 ± SD from at least three experiments
Description: The α-amylase inhibitory activity of Schiff bases (1–9) was evaluated by the method reported by Xiao et al. with slight modifications. Substrate solution is prepared by dissolving 1.0 g of starch in 50 mL of 0.4 M NaOH and heated at 100 °C for 5 min. The substrate solution was adjusted to a neutral pH by the addition of 0.1 M HCl, cooled on crushed ice and made to 100 mL in a standard volumetric flask with distilled water. […] Using a microplate, 40 μL substrate and 20 μL Schiff base solution were mixed, then preincubated at 37 °C for 3 min. Thereafter, 20 μL of 50 μg/mL α-amylase solution was dispensed into each well, and further incubated for 15 min. The reaction was terminated by the addition of 80 μL HCl (0.1 M); followed by 200 μL of 1 mM iodine solution, and the absorbances measured at 650 nm. Inhibitory activity was calculated from Equation (5):(5) α − amylase inhibition (%) = (A2 − A1/A4 − A3)100 where A1 is the absorbance of Schiff base, starch, and α-amylase solution after incubation, A2 is the absorbance of Schiff base and starch solution after incubation, A3 is the absorbance of starch and amylase solution after incubation, and A4 is the absorbance of a starch solution after incubation. Thereafter, the IC50 value was determined from the plot of % inhibition versus concentration.

[7] = system: Aspergillus niger; experiment: Broth microdilution antimicrobial assay, A. niger; assay type: cell-based
Description: as §2, §3, §4, §5

[8] = H2O2-scavenging activity; settings: absorbance at 230 nm; mean ± SD (n = 3)
Description: as §1
According to the methods of Ruch et al., the H2O2 scavenging activity of compounds (1–12) was evaluated. To 100 µL aliquot of the test compounds was added 0.4 mL of 50 mM phosphate buffer followed by 0.6 mL of 2 mM H2O2 solution prepared in 50 mM phosphate buffer (pH 6.8). The absorbance of the mixture was measured at 230 nm, thereafter, the %H2O2 scavenging activity (Equation (4)) and IC50 (μM) of the compounds 1–12 was determined. All analyses were carried out in triplicate. (4) % H2O2 − scavenging activity = 100⌊(Abs. of H2O2 − Abs. of test compound)/(Abs. of H2O2)⌋

[9] = DPPH radical scavenging activity; settings: absorbance at 517 nm, 30 min; mean ± SD (n = 3)
Description: as §1
The scavenging activity of compounds (1–12) was evaluated by adding an ethanolic solution of DPPH (300 μL, 0.05 mM) and incubated for 30 min in the dark. After that, changes in the absorbance of the mixture were measured at 517 nm on a UV-Vis spectrophotometer. The percentage radical scavenging activities (%RSA) and half maximal inhibitory concentration (IC50) of the compounds were estimated from Equation (2) and by linear regression analysis, respectively. All studies were carried out in triplicate. (2) % RSA= 100⌊(Abs. of DPPH − Abs. of test compound)/(Abs. of DPPH)⌋

[10] = ABTS radical cation decolourisation assay; settings: absorbance at 734 nm, 30 min; mean ± SD (n = 3)
Description: as §1
A mixture of ABTS (960.2 mg) and potassium persulphate (165.6 mg) was dissolved in 250 mL of distilled water to generate the blue-green ABTS^+ solution. The ABTS solution was stored away in the dark at ambient temperature for 24 h to generate sufficient ABTS radical cation (ABTS^+), then the absorbance was adjusted to 0.9547 with distilled water. Precisely 40 µL solution of the compounds were added to 3 mL ABTS^+ solution and incubated at 298 K for 30 min in the dark. Changes in concentration of ABTS^+ were measured at 734 nm on a spectrophotometer. The degree of ABTS^+ decolourisation was a template for evaluating the percentage proton-donating potential (%PDP) of the test compounds [24]; estimated from Equation (3). The IC50 (μM) of the compounds were determined by linear regression analysis, and all analyses were carried out in triplicate. (3) % PDP = 100⌊(Abs. of ABTS ^+ − Abs. of test compound)/(Abs. of ABTS^+)⌋

[11] = system: Staphylococcus aureus; experiment: Broth microdilution antimicrobial assay, S. aureus; assay type: cell-based; settings: for MBC: Staphylococcus aureus, read-out: MBC S. aureus
Description: as §2, §3, §4, §5

[12] = system: Salmonella typhi; experiment: Broth microdilution antimicrobial assay, S. typhi; assay type: cell-based; settings: Salmonella enterica, TYPHI, read-out: MBC S. typhi
Description: as §2, §3, §4, §5

[13] = system: Fungi (Aspergillus niger, Candida albicans); experiment: Broth microdilution MIC, antifungal (fungus not specified); assay type: cell-based; settings: read-out: MIC (antifungal)
Description: as §2, §3, §4
The antimicrobial activity of Schiff bases (1–9), was evaluated using 96-well broth microdilution method as described by de Rapper et al. (2013) and Akhalwaya et al. (2018) with slight modifications. Columns 1–11 was filled 50 µL LB, followed by the addition of 50 µL of Schiff base to column 1. Thereafter, 50 µL of Schiff bases from column 1 was transferred by multichannel pipette to columns 2–10, resulting in 50 µL Schiff bases per well. Column 11 contained 100 µL of diluted standardised inoculum, while Column 12 contained 100 µL of LB as a control to monitor sterility. Then, 50 µL of the microorganism suspension was then added to columns 1–10 and the control column 11. […]

[14] = relative to o-hydroxy derivative (8)

| SMILES | IC50 [1] | MFC ([2]; read-out: MFC C. albicans) | IC50 [3] | MBC [4] | MBC [5] | melting point | IC50 [6] | MFC ([7]; read-out: MFC A. niger) | IC50 [8] | IC50 [9] | IC50 [10] | MBC [11] | MBC [12] | MFC ([2]; 24 h, * = no fungicidal effect at the evaluated concentration, n = 3, read-out: MFC C. albicans) | antibacterial activity (growth inhibition), E. faecalis [4, 14] | antibacterial activity (growth inhibition), E. coli [5, 14] | MIC [13] | MFC ([7]; * = no fungicidal effect at the evaluated concentration, n = 3, read-out: MFC A. niger) | antibacterial activity (growth inhibition), S. aureus [11, 14] |
| --- | --- | --- | --- | --- | --- | --- | --- | --- | --- | --- | --- | --- | --- | --- | --- | --- | --- | --- | --- |
| O=[N+]([O-])c1ccc(C=Nc2cc(O)[nH]n2)cc1 [Compound 1, 3-(((4-nitrophenyl)methylidene)amino)-1H-pyrazol-5-ol] | ≥ 290 µM | > 4.31 µM | 540 ± 44 µM | 4.31 µM (≈ 1 µg/mL) | 4.31 µM (≈ 1 µg/mL) | 285 °C | 420 ± 36 µM | > 4.31 µM | 350 ± 5 µM | 290 ± 9 µM | 410 ± 6 µM | 4.31 µM (≈ 1 µg/mL) | 2.15 µM (≈ 0.499 µg/mL) |  |  |  |  |  |  |
| O=[N+]([O-])c1ccc(C=Nc2c(O)cc(S(=O)(=O)O)c3ccccc23)cc1 [Compound 7, 4-(4-nitrobenzylideneamino)-3-hydroxynaphthalene-1-sulphonic acid] | ≥ 50 µM |  | 961 ± 84 µM | > 2.69 µM | 1.34 µM (≈ 0.499 µg/mL) | 200 °C | 730 ± 16 µM |  | 160 ± 90 µM | 200 µM | 50 ± 5 µM | > 2.69 µM | > 2.69 µM | 1.53 µM (≈ 0.57 µg/mL) | very potent | very potent | 0.67 µM (≈ 0.249 µg/mL) | 2.69 µM (≈ 1 µg/mL) | very potent |
